According to patent publication US11452682B2, “Toothpaste composition for alleviating dentin hyperesthesia” (HYSENSBIO, priority 2018, dated 2022):

These substances were tested on DSPP gene (assay: mRNA level of DSPP gene in MDPC-23 cells by RT-PCR and real-time PCR). Settings: cultured 48 hours with peptide, relative ratio to mRNA level in untreated control, Gapdh internal control, repeated three times.
Assay type: cell-based, mouse
Protocol: The MDPC-23 cells cultured in Example 2-1 were treated with the peptides of each group synthesized in Example 1, then cultured for 48 hours. The mRNA level of the DSPP, an odontoblast differentiation marker gene, expressed in the MDPC-23 cells were measured, and the measured mRNA level of each DSPP gene was converted into a relative ratio to the mRNA level of the DSPP gene measured in control (Tables 13 to 24). In addition, the average value of the mRNA level of the DSPP gene measured according to the peptides of each group was compared (FIG. 1B). At this time, as a control, MDPC-23 cells that were not treated with the peptide promoting differentiation of odontoblast were used.
The expression level of the DSPP gene was measured through RT-PCR and real-time PCR analysis: Specifically, total RNA was extracted from the MDPC-23 cells using TRIzol reagent. 2 μg of the total RNA, 1 μl of reverse transcriptase, and 0.5 μg of oligo (oligo; dT) were used to synthesize cDNA. The synthesized cDNA was used in a real-time polymerase chain reaction. The real-time polymerase chain reaction was performed on an ABI PRISM 7500 sequence detection system (Applied Biosystems) and an SYBR GREEN PCR Master Mix (Takara, Japan). The real-time polymerase chain reaction was performed under conditions of 94° C., 1 min; 95° C., 15 sec; 60° C., 34 sec for 40 cycles. Results were analyzed by a comparative cycle threshold (CT) method. At this time, the Gapdh gene was used as the internal control group, and the measured value was repeated three times. The mean value and standard deviation value thereof were used.

Substance	mRNA level of Dspp gene Mean
4 (KYQRRRRNKY; Novel peptide) [compound 4]	1.855
60 (KYRQRRRSYK; Novel peptide) [compound 60]	2.107
37 (KYRQKKKNKY; Novel peptide) [compound 37]	1.597
32 (KYQRKRRSYK; Novel peptide) [compound 32]	2.219
10 (KYQRRKRSKY; Novel peptide) [compound 10]	1.746
6 (KYQRKRKNKY; Novel peptide) [compound 6]	1.746
77 (KYKQKKKSKY; Novel peptide) [compound 77]	1.729
17 (KYQRRKKNYK; Novel peptide) [compound 17]	2.117
61 (KYRQKKKSYK; Novel peptide) [compound 61]	2.301
15 (KYQRKKRSKY; Novel peptide) [compound 15]	1.964
57 (KYRQRKKSYK; Novel peptide) [compound 57]	2.039
2 (KYQRRKRNKY; Novel peptide) [compound 2]	1.646
33 (KYRQRKKNKY; Novel peptide) [compound 33]	1.712
20 (KYQRRRRNYK; Novel peptide) [compound 20]	2.553
94 (KYKQKRKSYK; Novel peptide) [compound 94]	3.836
71 (KYKQKKRNKY; Novel peptide) [compound 71]	1.879
65 (KYKQRKKNKY; Novel peptide) [compound 65]	1.723
46 (KYRQKRKSKY; Novel peptide) [compound 46]	1.887
73 (KYKQRKKSKY; Novel peptide) [compound 73]	2.035
79 (KYKQKKRSKY; Novel peptide) [compound 79]	2.231
13 (KYQRKKKSKY; Novel peptide) [compound 13]	1.685
49 (KYRQRKKNYK; Novel peptide) [compound 49]	1.923
44 (KYRQRRRSKY; Novel peptide) [compound 44]	1.793
30 (KYQRKRKSYK; Novel peptide) [compound 30]	2.512
